Results from ChEMBL document CHEMBL1146284, “Antitumor activity of the marine natural product dibromophakellstatin in vitro” (Bioorg Med Chem Lett, 2007).
One block for each compound: values may come before it.

Legend:
Format in all cases: functional, cell-based
[1] = Antiproliferative activity against human MEXF 394NL cells
[2] = Antiproliferative activity against human OVXF 899L cells
[3] = tested on: SF-268; experiment: Antiproliferative activity against human SF268 cells
[4] = Antiproliferative activity against human CNXF 498NL cells
[5] = Antiproliferative activity against human LXF 529L cells
[6] = Antiproliferative activity against human LXF 629L cells
[7] = tested on: NCI-H460; experiment: Antiproliferative activity against human H460 cells
[8] = Antiproliferative activity against human MAXF 401NL cells
[9] = tested on: MCF7; experiment: Antiproliferative activity against human MCF7 cells
[10] = Antiproliferative activity against human MEXF 276L cells; details: MEXF276L
[11] = Antiproliferative activity against human MEXF 462NL cells
[12] = Antiproliferative activity against human MEXF 514NL cells
[13] = Antiproliferative activity against human MEXF 520L cells
[14] = Antiproliferative activity against human OVXF 1619L cells
[15] = Antiproliferative activity against human BXF 1218L cells
[16] = tested on: T-24; experiment: Antiproliferative activity against human T24 cells
[17] = tested on: HCT-116; experiment: Antiproliferative activity against human HCT116 cells
[18] = tested on: HT-29; experiment: Antiproliferative activity against human HT29 cells
[19] = Antiproliferative activity against human GXF 251L cells
[20] = Antiproliferative activity against human HNXF 536L cells
[21] = Antiproliferative activity against human LXF 1121L cells
[22] = Antiproliferative activity against human LXF 289L cells
[23] = Antiproliferative activity against human LXF 526L cells
[24] = tested on: OVCAR-3; experiment: Antiproliferative activity against human OVCAR-3 cells
[25] = Antiproliferative activity against human PAXF 1675L cells
[26] = tested on: PANC-1; experiment: Antiproliferative activity against human PANC1 cells
[27] = tested on: CWR22R; experiment: Antiproliferative activity against human 22RV1 cells
[28] = tested on: DU-145; experiment: Antiproliferative activity against human DU145 cells
[29] = tested on: LNCaP; experiment: Antiproliferative activity against human LNCAP cells
[30] = Antiproliferative activity against human PC3M cells; details: PC-3M
[31] = Antiproliferative activity against human PXF 1752L cells
[32] = Antiproliferative activity against human RXF 1781L cells
[33] = Antiproliferative activity against human RXF 393NL cells
[34] = Antiproliferative activity against human RXF 486NL cells […]
[35] = Antiproliferative activity against human RXF 944NL cells
[36] = Antiproliferative activity against human UXF 1138L cells

Structure (SMILES): O=C1N[C@H]2n3c(cc(Br)c3Br)C(=O)N3CCC[C@]23N1
IC50 ([1]; mexf 394nl): > 10 µM
IC50 ([2]; ovxf 899l): > 10 µM
IC50 ([3]; sf-268): > 10 µM
IC50 ([4]; cnxf 498nl): > 10 µM
IC50 ([5]; lxf 529l): > 10 µM

Structure (SMILES): CN1C(=O)c2cc(Br)c(Br)n2C2C1C2(Cl)Cl (racemic)
IC50 ([1]; Homo sapiens, MEXF 394NL): 1.35 µM
IC50 ([2]; Homo sapiens, OVXF 899L): > 10 µM
IC50 ([3]; Homo sapiens, SF-268): > 10 µM
IC50 ([4]; Homo sapiens, CNXF 498NL): > 10 µM
IC50 ([5]; Homo sapiens, LXF 529L): > 10 µM

IC50 [7]: > 10 µM
IC50 [9]: > 10 µM
IC50 [17]: > 10 µM
IC50 [18]: > 10 µM
IC50 [24]: > 10 µM
IC50 [26]: 4.06 µM
IC50 [28]: > 10 µM
IC50 [29]: > 10 µM
Structure (SMILES): O=C1NC2n3c(cc(Br)c3Br)C(=O)N3CCCC23N1 (racemic)
IC50 [6]: > 10 µM
IC50 [8]: > 10 µM
IC50 [10]: > 10 µM
IC50 ([1]; Homo sapiens, MEXF 394NL): 1.37 µM
IC50 [11]: > 10 µM
IC50 [12]: 4.41 µM
IC50 [13]: > 10 µM
IC50 [14]: 2.23 µM
IC50 ([2]; Homo sapiens, OVXF 899L): 0.6 µM
IC50 [15]: > 10 µM
IC50 [16]: > 10 µM
IC50 ([3]; Homo sapiens, SF-268): 2.28 µM
IC50 [19]: > 10 µM
IC50 ([4]; Homo sapiens, CNXF 498NL): 0.93 µM
IC50 [20]: > 10 µM
IC50 [21]: > 10 µM
IC50 [22]: > 10 µM
IC50 [23]: > 10 µM
IC50 ([5]; Homo sapiens, LXF 529L): 0.96 µM
IC50 [25]: > 10 µM
IC50 [27]: > 10 µM
IC50 [30]: 2.42 µM
IC50 [31]: > 10 µM
IC50 [32]: > 10 µM
IC50 [33]: > 10 µM
IC50 [34]: > 10 µM
IC50 [35]: > 10 µM
IC50 [36]: 1.21 µM

Structure (SMILES): O=C1N[C@H]2n3c(cc(Br)c3Br)C(=O)N3CCC[C@]23N1 [DIBROMOPHAKELLSTATIN]
IC50 ([1]; mexf 394nl): 1.35 µM
IC50 ([2]; ovxf 899l): 0.05 µM
IC50 ([3]; sf-268): 0.55 µM
IC50 ([4]; cnxf 498nl): 0.72 µM
IC50 ([5]; lxf 529l): 1.62 µM

Structure (SMILES): O=C1c2cc(Br)c(Br)n2C2C(Cl)(Cl)C23CCCN13 (racemic)
IC50 ([1]; Homo sapiens, MEXF 394NL): 7.87 µM
IC50 ([2]; Homo sapiens, OVXF 899L): 5.37 µM
IC50 ([3]; Homo sapiens, SF-268): 3.91 µM
IC50 ([4]; Homo sapiens, CNXF 498NL): 5.84 µM
IC50 ([5]; Homo sapiens, LXF 529L): 9.84 µM

IC50 [7]: > 10 µM
IC50 [9]: > 10 µM
IC50 [17]: > 10 µM
IC50 [18]: > 10 µM
IC50 [24]: > 10 µM
IC50 [26]: 5 µM
IC50 [28]: > 10 µM
IC50 [29]: > 10 µM
Structure (SMILES): CCOC(=O)N1C(=O)N(OS(=O)(=O)c2ccc(C)cc2)C23CCCN2C(=O)c2cc(Br)c(Br)n2C13 (racemic)
IC50 [6]: 6.52 µM
IC50 [8]: 8.16 µM
IC50 [10]: 9.44 µM
IC50 ([1]; Homo sapiens, MEXF 394NL): 4.02 µM
IC50 [11]: > 10 µM
IC50 [12]: > 10 µM
IC50 [13]: > 10 µM
IC50 [14]: 4.83 µM
IC50 ([2]; Homo sapiens, OVXF 899L): 8.89 µM
IC50 [15]: 7.42 µM
IC50 [16]: 9.98 µM
IC50 ([3]; Homo sapiens, SF-268): 6.45 µM
IC50 [19]: > 10 µM
IC50 ([4]; Homo sapiens, CNXF 498NL): > 10 µM
IC50 [20]: 7.24 µM
IC50 [21]: > 10 µM
IC50 [22]: > 10 µM
IC50 [23]: 7.96 µM
IC50 ([5]; Homo sapiens, LXF 529L): > 10 µM
IC50 [25]: > 10 µM
IC50 [27]: > 5.92 µM
IC50 [30]: 8.6 µM
IC50 [31]: > 10 µM
IC50 [32]: > 10 µM
IC50 [33]: > 10 µM
IC50 [34]: > 10 µM
IC50 [35]: 6.3 µM
IC50 [36]: 8.96 µM
